Reference: patent US9295673B2, “Combination of mTOR inhibitors and P13-kinase inhibitors, and uses thereof” (Intellikine LLC, priority 2011, dated 2016)
pIC50: −log10 of the molar value. Like-named read-outs stand apart in the source and are kept apart here.

Assays:
[1] = biological target: PI3K δ (Homo sapiens, UniProt O00329); test: PI 3-Kinase (human) HTRF assay, PI3K δ
[2] = biological target: PI3K α (Homo sapiens, UniProt P42336); test: PI 3-Kinase (human) HTRF assay, PI3K α
[3] = biological target: T1, mTOR (Homo sapiens, UniProt P42345); test: mTOR kinase inhibition assay (radiometric or LanthaScreen TR-FRET); format: biochemical; settings: read-out: mTORC IC50
T1 construct: purchased Invitrogen
Protocol: The compounds described herein can be tested against recombinant mTOR (Invitrogen) in an assay containing 50 mM HEPES, pH 7.5, 1 mM EGTA, 10 mM MgCl2, 2.5 mM, 0.01% Tween, 10 μM ATP (2.5 μCi of μ-32P-ATP), and 3 mg/mL BSA. Rat recombinant PHAS-1/4EBP1 (Calbiochem; 2 mg/mL) is used as a substrate. Reactions are terminated by spotting onto nitrocellulose, which is washed with 1M NaC1/1% phosphoric acid (approximately 6 times, 5-10 minutes each). Sheets are dried and the transferred radioactivity quantitated by phosphorimaging.
For instance, one can use Invitrogen's LanthaScreen™ Kinase assay to test the inhibitors of mTOR disclosed herein. This assay is a time resolved FRET platform that measures the phosphorylation of GFP labeled 4EBP1 by mTOR kinase. The kinase reaction is performed in a white 384 well microtitre plate. The total reaction volume is 20 ul per well and the reaction buffer composition is 50 mM HEPES pH7.5, 0.01% Polysorbate 20, 1 mM EGTA, 10 mM MnCl2, and 2 mM DTT. In the first step, each well receives 2 ul of test compound in 20% dimethylsulphoxide resulting in a 2% DMSO final concentration. […] The plate is sealed and incubated for 1 hour at room temperature. […] The plate is sealed, incubated for 1 hour at room temperature, and then read on a plate reader set up for LanthaScreen™ TR-FRET. Data is analyzed and IC50s are generated using GraphPad Prism 5.

[4] = biological target: PI3K β (Homo sapiens, UniProt P42338); test: PI 3-Kinase (human) HTRF assay, PI3K β; settings: read-out: PI3K β IC50
Chain of PI3K β (P42338 whole entry): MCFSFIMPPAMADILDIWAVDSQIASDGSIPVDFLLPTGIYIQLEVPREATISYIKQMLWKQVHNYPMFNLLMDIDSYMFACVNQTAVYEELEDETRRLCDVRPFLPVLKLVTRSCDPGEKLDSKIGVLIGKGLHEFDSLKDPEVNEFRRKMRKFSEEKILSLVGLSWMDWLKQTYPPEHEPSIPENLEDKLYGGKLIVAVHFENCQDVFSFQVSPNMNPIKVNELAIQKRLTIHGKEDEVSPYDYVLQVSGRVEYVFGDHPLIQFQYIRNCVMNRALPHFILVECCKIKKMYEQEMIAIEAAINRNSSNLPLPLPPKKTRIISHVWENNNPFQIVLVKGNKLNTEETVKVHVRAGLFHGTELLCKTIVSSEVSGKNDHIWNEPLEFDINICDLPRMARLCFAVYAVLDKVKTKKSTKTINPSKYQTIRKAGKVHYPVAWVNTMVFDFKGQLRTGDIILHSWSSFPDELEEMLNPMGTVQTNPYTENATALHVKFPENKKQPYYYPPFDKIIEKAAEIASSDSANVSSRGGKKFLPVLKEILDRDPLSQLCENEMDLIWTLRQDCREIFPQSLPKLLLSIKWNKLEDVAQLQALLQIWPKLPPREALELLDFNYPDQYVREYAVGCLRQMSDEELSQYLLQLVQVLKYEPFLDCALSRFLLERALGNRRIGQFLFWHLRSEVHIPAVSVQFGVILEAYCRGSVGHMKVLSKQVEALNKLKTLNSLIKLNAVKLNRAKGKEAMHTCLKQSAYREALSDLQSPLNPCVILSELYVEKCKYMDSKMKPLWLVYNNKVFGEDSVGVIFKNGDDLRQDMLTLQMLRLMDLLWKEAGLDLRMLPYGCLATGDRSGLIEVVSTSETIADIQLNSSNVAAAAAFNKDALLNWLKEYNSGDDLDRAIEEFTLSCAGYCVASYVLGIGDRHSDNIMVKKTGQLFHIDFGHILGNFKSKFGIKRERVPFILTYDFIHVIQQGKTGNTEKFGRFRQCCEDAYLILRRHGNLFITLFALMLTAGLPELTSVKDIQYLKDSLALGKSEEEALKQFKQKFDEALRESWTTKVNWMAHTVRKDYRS
Chain of PI3K β (P27986 whole entry partner): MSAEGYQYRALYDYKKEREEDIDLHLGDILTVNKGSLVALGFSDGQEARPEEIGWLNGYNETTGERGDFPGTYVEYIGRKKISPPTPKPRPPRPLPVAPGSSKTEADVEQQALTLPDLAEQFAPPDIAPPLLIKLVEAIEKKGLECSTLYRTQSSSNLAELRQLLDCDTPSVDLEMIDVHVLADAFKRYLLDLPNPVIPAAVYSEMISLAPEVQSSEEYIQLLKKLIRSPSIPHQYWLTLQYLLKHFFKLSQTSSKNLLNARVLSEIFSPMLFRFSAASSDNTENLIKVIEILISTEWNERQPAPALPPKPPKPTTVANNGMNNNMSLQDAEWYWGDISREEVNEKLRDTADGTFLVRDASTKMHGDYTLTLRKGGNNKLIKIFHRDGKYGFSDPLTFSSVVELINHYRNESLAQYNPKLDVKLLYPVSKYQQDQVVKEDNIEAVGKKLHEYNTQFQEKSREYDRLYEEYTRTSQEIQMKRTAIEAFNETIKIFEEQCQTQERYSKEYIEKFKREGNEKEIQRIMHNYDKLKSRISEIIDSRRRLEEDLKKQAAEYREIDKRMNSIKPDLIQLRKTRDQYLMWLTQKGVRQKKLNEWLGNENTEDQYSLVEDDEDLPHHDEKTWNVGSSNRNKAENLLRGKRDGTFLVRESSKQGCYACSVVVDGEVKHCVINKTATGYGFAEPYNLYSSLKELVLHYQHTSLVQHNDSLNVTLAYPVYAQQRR
Protocol: An exemplary system is PI 3-Kinase (human) HTRF™ Assay from Upstate. […] Briefly, the assay is a time resolved FRET assay that indirectly measures PIP3 product formed by the activity of a PI3-K. The kinase reaction is performed in a microtitre plate (e.g., a 384 well microtitre plate). The total reaction volume is approximately 20 ul per well. In the first step, each well receives 2 ul of test compound in 20% dimethylsulphoxide resulting in a 2% DMSO final concentration. […] The plate is sealed and incubated for 15 minutes at room temperature. […] The plate is sealed and incubated for 1 hour at room temperature. The reaction is stopped by adding 5 ul of Stop Solution per well and then 5 ul of Detection Mix is added per well. The plate is sealed, incubated for 1 hour at room temperature, and then read on an appropriate plate reader. Data is analyzed and IC50s are generated using GraphPad Prism 5.

[5] = biological target: PI3K γ (Homo sapiens, UniProt P48736); test: PI 3-Kinase (human) HTRF assay, PI3K γ; settings: read-out: PI3K γ IC50
Chain of PI3K γ (P48736 whole entry): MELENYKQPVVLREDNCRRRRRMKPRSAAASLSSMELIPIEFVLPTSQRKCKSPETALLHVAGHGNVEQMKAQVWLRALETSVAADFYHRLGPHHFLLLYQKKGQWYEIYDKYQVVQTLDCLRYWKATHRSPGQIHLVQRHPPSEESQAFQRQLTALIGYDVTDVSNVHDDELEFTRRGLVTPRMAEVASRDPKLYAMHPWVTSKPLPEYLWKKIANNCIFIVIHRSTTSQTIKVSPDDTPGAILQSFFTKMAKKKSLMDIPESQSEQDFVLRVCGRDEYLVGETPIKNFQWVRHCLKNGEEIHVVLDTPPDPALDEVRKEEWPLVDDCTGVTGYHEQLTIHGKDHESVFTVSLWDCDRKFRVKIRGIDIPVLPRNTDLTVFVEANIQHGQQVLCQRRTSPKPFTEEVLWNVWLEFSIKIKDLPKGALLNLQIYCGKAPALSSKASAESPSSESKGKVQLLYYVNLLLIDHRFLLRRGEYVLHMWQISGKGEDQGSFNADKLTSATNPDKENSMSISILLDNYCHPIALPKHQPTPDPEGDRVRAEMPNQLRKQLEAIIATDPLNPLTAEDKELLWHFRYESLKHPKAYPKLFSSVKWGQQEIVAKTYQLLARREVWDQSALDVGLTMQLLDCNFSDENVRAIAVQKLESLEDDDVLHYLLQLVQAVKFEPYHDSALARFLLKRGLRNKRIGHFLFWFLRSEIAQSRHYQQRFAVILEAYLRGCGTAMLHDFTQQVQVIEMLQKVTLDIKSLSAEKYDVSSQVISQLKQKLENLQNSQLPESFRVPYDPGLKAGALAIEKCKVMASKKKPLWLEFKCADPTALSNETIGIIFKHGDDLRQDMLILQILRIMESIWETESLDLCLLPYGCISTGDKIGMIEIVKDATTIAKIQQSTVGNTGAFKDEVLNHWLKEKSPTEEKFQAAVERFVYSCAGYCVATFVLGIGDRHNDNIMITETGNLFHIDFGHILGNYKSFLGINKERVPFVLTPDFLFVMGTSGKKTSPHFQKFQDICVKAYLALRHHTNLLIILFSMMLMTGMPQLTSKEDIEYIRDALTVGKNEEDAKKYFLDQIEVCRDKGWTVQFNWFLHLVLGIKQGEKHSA

Chain of PI3K δ (O00329 whole entry): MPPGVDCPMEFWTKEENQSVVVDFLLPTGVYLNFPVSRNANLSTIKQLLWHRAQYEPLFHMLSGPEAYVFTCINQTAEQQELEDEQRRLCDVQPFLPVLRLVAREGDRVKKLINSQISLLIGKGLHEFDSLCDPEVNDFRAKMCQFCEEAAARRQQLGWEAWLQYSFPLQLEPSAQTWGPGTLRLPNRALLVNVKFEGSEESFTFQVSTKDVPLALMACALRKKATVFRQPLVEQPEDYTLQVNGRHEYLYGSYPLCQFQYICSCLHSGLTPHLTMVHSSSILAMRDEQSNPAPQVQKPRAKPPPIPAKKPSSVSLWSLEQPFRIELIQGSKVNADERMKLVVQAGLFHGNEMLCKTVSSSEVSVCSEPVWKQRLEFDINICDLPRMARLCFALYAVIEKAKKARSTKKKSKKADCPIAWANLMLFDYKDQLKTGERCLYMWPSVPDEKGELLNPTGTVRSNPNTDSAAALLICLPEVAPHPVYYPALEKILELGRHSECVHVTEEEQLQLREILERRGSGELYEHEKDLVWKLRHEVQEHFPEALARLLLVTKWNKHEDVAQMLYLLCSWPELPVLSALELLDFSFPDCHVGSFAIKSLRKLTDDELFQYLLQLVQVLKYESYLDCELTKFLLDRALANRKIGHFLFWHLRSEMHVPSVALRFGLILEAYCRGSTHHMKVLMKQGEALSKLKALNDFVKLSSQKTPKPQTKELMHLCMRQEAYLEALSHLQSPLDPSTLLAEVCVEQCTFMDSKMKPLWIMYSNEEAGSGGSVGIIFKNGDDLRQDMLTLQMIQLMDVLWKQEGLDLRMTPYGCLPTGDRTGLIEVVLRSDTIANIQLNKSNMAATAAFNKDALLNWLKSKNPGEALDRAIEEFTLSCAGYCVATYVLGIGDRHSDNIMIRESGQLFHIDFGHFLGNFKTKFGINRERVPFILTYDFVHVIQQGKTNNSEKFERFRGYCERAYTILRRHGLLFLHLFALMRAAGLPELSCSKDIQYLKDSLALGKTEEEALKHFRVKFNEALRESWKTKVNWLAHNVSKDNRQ
Chain of PI3K δ (P27986 whole entry partner): as the sequence (P27986 whole entry partner) above
Chain of PI3K α (P42336 whole entry): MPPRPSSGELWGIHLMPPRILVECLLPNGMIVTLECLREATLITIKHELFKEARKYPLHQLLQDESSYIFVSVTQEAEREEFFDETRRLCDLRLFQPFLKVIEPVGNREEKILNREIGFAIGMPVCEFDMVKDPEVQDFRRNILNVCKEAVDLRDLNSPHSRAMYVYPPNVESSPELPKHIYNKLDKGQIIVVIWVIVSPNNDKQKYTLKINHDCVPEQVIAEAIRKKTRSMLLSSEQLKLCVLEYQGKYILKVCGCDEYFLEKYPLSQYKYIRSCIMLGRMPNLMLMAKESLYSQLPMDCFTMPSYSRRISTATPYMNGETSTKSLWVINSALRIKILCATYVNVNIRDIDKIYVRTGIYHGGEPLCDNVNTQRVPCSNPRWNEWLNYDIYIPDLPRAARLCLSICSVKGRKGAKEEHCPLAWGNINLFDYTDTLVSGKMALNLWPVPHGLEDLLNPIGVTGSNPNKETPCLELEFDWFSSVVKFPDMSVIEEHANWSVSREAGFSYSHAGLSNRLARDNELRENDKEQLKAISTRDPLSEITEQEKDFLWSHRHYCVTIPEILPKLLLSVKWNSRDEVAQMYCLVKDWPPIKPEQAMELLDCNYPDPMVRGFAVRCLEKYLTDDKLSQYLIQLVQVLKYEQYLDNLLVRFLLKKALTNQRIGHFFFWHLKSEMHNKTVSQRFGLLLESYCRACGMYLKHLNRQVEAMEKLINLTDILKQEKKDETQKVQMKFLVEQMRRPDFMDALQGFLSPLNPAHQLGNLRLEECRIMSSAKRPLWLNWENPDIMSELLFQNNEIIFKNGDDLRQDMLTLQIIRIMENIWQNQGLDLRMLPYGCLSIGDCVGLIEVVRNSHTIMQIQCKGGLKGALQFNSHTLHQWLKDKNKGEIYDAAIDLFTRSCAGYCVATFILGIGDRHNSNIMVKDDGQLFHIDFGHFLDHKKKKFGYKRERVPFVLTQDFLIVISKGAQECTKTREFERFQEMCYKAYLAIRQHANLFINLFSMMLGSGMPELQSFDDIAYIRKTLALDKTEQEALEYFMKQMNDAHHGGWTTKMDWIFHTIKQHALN
Chain of PI3K α (P27986 whole entry partner): as the sequence (P27986 whole entry partner) above

Compound | pIC50 ([1]; read-out: PI3K δ IC50) | pIC50 ([2]; read-out: PI3K α IC50) | pIC50 ([3]; Table 2) | pIC50 ([4]; Table 2) | pIC50 ([5]; Table 2) | pIC50 ([2]; read-out: PI3K α IC50, Table 2) | also measured
CCOC(=O)Cn1nc(-c2cc3cc(O)ccc3[nH]2)c2c(N)ncnc21 [Compound 28] | < 6.30 | < 6.30 | > 6.30 | < 6.30 |  |  | 
CC(=O)N1CCC(n2nc(-c3cc4cc(O)ccc4[nH]3)c3c(N)ncnc32)CC1 [Compound 30] |  | < 6.30 | > 7.60 | < 6.30 |  |  | pIC50 ([1]; read-out: PI3K δ IC50, Table 2): < 6.30
Nc1ncnc2c1c(-c1cc3cc(O)ccc3[nH]1)nn2C1CCN(C(=O)C2CC2)CC1 [Compound 31] |  | < 6.30 | > 7.60 | < 6.30 |  |  | pIC50 ([1]; read-out: PI3K δ IC50, Table 2): 6.30 to 7.00
CC(C)n1nc(-c2cc3cc(O)c(Cl)cc3[nH]2)c2c(N)ncnc21 [Compound 32] | < 6.30 | < 6.30 | > 6.30 |  | < 6.30 |  | 
Nc1ncnc2c1c(-c1cc3cc(O)ccc3[nH]1)nn2CCN1CCOCC1 [Compound 33] |  |  | > 6.30 |  | < 6.30 | < 6.30 | pIC50 ([1]; read-out: PI3K δ IC50, Table 2): < 6.30
Nc1ncnc2c1c(-c1cc3cc(O)ccc3[nH]1)nn2CC(=O)N1CCOCC1 [Compound 34] | < 6.30 | < 6.30 | < 6.30 |  |  |  | pIC50 [5]: < 6.30
CNC(=O)Cn1nc(-c2cc3cc(O)ccc3[nH]2)c2c(N)ncnc21 [Compound 35] | < 6.30 | < 6.30 | < 6.30 |  | < 6.30 |  | 
Nc1ncnc2c1c(-c1cc3cccc(O)c3[nH]1)nn2C1CCCC1 [Compound 36] |  |  | > 8.00 |  | 7.00 to 7.30 | < 6.30 | pIC50 ([1]; read-out: PI3K δ IC50, Table 2): 6.30 to 7.00
Nc1ncnc2c1c(-c1cc3cc(O)ccc3[nH]1)nn2Cc1cccnc1 [Compound 38] |  |  | > 6.30 |  |  | < 6.30 | pIC50 ([1]; read-out: PI3K δ IC50, Table 2): < 6.30; pIC50 [5]: < 6.30
CC(C)n1nc(-c2cc3c(Cl)ccc(O)c3[nH]2)c2c(N)ncnc21 [Compound 39] |  |  | > 8.00 |  |  | < 6.30 | pIC50 ([1]; read-out: PI3K δ IC50, Table 2): < 6.30; pIC50 [5]: < 6.30
COCCn1nc(-c2cc3cc(O)ccc3[nH]2)c2c(N)ncnc21 [Compound 40] | < 6.30 |  | > 7.00 |  | < 6.30 | < 6.30 | 
Nc1ncnc2c1c(-c1cc3cccc(O)c3[nH]1)nn2C1CCN(C(=O)C2CC2)CC1 [Compound 41] |  |  | > 8.00 | < 6.30 |  | < 6.30 | pIC50 ([1]; read-out: PI3K δ IC50, Table 2): < 6.30; pIC50 [5]: 7.30 to 7.60
Nc1ncnc2c1c(-c1cc3cc(O)ccc3[nH]1)nn2C1CCOCC1 [Compound 42] | 7.00 to 7.30 | < 6.30 | > 8.30 | < 6.30 |  |  | 
CNC(=O)CCn1nc(-c2cc3cc(O)ccc3[nH]2)c2c(N)ncnc21 [Compound 43] |  | < 6.30 | < 6.30 | < 6.30 |  |  | pIC50 ([1]; read-out: PI3K δ IC50, Table 2): < 6.30
Cc1nccn1CCn1nc(-c2cc3cc(O)ccc3[nH]2)c2c(N)ncnc21 [Compound 44] | < 6.30 |  | > 7.00 | < 6.30 |  | < 6.30 | 
Nc1ncnc2c1c(-c1cc3cc(O)ccc3[nH]1)nn2C1CC(N2CCOCC2)C1 (stereo not shown) [Compound 49] | 6.30 to 7.00 | < 6.30 | > 8.00 | < 6.30 | 6.30 to 7.00 |  | 
CC(C)n1nc(-c2cc3cccc(Cl)c3[nH]2)c2c(N)ncnc21 [Compound 50] | 6.30 to 7.00 |  | > 7.30 | < 6.30 | 6.30 to 7.00 | < 6.30 | 
Nc1ncnc2c1c(-c1cc3cccc(Cl)c3[nH]1)nn2C1CCOCC1 [Compound 51] |  | < 6.30 | > 7.30 | < 6.30 | 6.30 to 7.00 |  | pIC50 ([1]; read-out: PI3K δ IC50, Table 2): 6.30 to 7.00
CN1CCN(C2CC(n3nc(-c4cc5cc(O)ccc5[nH]4)c4c(N)ncnc43)C2)CC1 (stereo not shown) [Compound 52] | 6.30 to 7.00 | < 6.30 | > 6.30 | < 6.30 |  |  | pIC50 [5]: < 6.30
Nc1ncnc2c1c(-c1cc3cc(O)ccc3[nH]1)nn2C1CC(=O)C1 [Compound 53] |  | < 6.30 | > 7.00 | < 6.30 | < 6.30 |  | 
Nc1ncnc2c1c(-c1cc3cc(O)ccc3[nH]1)nn2C1CC(O)C1 (stereo not shown) [Compound 54] |  |  | > 7.60 | < 6.30 | < 6.30 | < 6.30 | 
CC(C)N1CCC(n2nc(-c3cc4cc(O)ccc4[nH]3)c3c(N)ncnc32)CC1 [Compound 55] |  |  | > 6.30 | < 6.30 | < 6.30 | < 6.30 | 
CC(C)N1CCC(n2nc(-c3cc4cc(O)cc(Cl)c4[nH]3)c3c(N)ncnc32)CC1 [Compound 56] |  | < 6.30 | < 6.30 | < 6.30 | < 6.30 |  | 

Compound | pIC50 ([1]; read-out: PI3K δ IC50) | pIC50 ([2]; read-out: PI3K α IC50) | pIC50 ([3]; Table 2) | pIC50 ([4]; Table 2) | pIC50 ([5]; Table 2) | pIC50 ([2]; read-out: PI3K α IC50, Table 2) | also measured
Nc1ncnc2c1c(-c1cc3cc(O)ccc3[nH]1)nn2C1CCC(N2CCOCC2)CC1 (stereo not shown) [Compound 57] |  |  | > 7.60 | < 6.30 | < 6.30 | < 6.30 | 
CN1CCN(C2CCC(n3nc(-c4cc5cc(O)ccc5[nH]4)c4c(N)ncnc43)CC2)CC1 (stereo not shown) [Compound 58] |  | < 6.30 | < 6.30 | < 6.30 | < 6.30 |  | 
COc1ccc2cc(-c3nn(C4CCOCC4)c4ncnc(N)c34)[nH]c2c1 [Compound 59] |  |  | < 6.30 | < 6.30 | < 6.30 | < 6.30 | 
Nc1ncnc2c1c(-c1cc3ccc(O)cc3[nH]1)nn2C1CCOCC1 [Compound 60] |  |  | > 7.00 | < 6.30 | 7.00 to 7.30 | < 6.30 | 
COc1ccc(Cl)c2cc(-c3nn(C4CCOCC4)c4ncnc(N)c34)[nH]c12 [Compound 61] | < 6.30 |  | > 7.60 | < 6.30 | < 6.30 | < 6.30 | 
Nc1ncnc2c1c(-c1cc3cccc(O)c3[nH]1)nn2C1CCOCC1 [Compound 62] |  |  | > 8.30 | < 6.30 | < 6.30 | < 6.30 | pIC50 ([1]; read-out: PI3K δ IC50, Table 2): 7.00 to 7.30
COc1cccc2cc(-c3nn(C4CCOCC4)c4ncnc(N)c34)[nH]c12 [Compound 63] | 7.60 to 8.00 | 6.30 to 7.00 | > 8.30 | < 6.30 | 7.60 to 8.00 |  | 
CC(C)N1CCC(n2nc(-c3cc4cccc(O)c4[nH]3)c3c(N)ncnc32)CC1 [Compound 64] |  |  | > 7.60 | < 6.30 | 6.30 to 7.00 | < 6.30 | pIC50 ([1]; read-out: PI3K δ IC50, Table 2): 6.30 to 7.00
CC(=O)N1CCC(n2nc(-c3cc4ccc(O)cc4[nH]3)c3c(N)ncnc32)CC1 [Compound 65] | 7.60 to 8.00 | 7.30 to 7.60 | > 8.00 | < 6.30 | 7.60 to 8.00 |  | 
COc1cccc2cc(-c3nn(C4CCN(C(=O)C5CC5)CC4)c4ncnc(N)c34)[nH]c12 [Compound 66] | < 6.30 |  | < 6.30 | < 6.30 | < 6.30 | < 6.30 | 
COc1cc(Cl)c2[nH]c(-c3nn(C4CCOCC4)c4ncnc(N)c34)cc2c1 [Compound 67] |  |  | < 6.30 | < 6.30 | < 6.30 | < 6.30 | pIC50 ([1]; read-out: PI3K δ IC50, Table 2): < 6.30
Nc1ncnc2c1c(-c1cc3cc(O)cc(Cl)c3[nH]1)nn2C1CCOCC1 [Compound 68] | 7.60 to 8.00 |  | > 8.30 | < 6.30 | 7.30 to 7.60 | 6.30 to 7.00 | 
CC(=O)N1CCC(n2nc(-c3cc4c(Cl)ccc(O)c4[nH]3)c3c(N)ncnc32)CC1 [Compound 69] | 6.30 to 7.00 |  | > 8.30 | < 6.30 | < 6.30 | < 6.30 | 
CC(=O)N1CCC(n2nc(-c3cc4cc(O)cc(Cl)c4[nH]3)c3c(N)ncnc32)CC1 [Compound 70] |  |  | > 8.30 | < 6.30 | 7.00 to 7.30 | 6.30 to 7.00 | pIC50 ([1]; read-out: PI3K δ IC50, Table 2): 7.60 to 8.00
CC(C)N1CCC(n2nc(-c3cc4c(Cl)ccc(O)c4[nH]3)c3c(N)ncnc32)CC1 [Compound 71] | < 6.30 |  | > 7.00 | < 6.30 | < 6.30 | < 6.30 | 
Nc1nc2cc(-c3ccc4ncc(C(=O)NC5CCC(O)CC5)n4c3)ccc2o1 (stereo not shown) [Compound 143] |  |  |  |  |  |  | pIC50 [5]: > 7.00; pIC50 [3]: < 5.00; pIC50 [4]: > 5.00
CC(=O)Nc1nc2ccc(-c3ccc4oc(N)nc4c3)cc2s1 [Compound 231] | > 7.00 | > 7.00 |  |  |  |  | pIC50 [5]: > 7.00; pIC50 [3]: > 5.00; pIC50 [4]: > 6.00
CC(C)[C@@H](N)C(=O)N1CCN(c2cnc3ccc(-c4ccc5oc(N)nc5c4)cc3n2)CC1 [Compound 270] | > 6.00 | > 7.00 |  |  |  |  | pIC50 [3]: > 5.00; pIC50 [4]: > 6.00
O=C(c1cnc2ccc(-c3ccnc4[nH]ncc34)cn12)N1CCOCC1 [Compound 532] |  |  |  |  |  |  | pIC50 ([2]; read-out: PI3K α IC50, in vitro): > 5.00; pIC50 ([3]; in vitro): < 5.00
Nc1nc2cc(-c3ccc4ncc(N5C6CCC5COC6)nc4n3)ccc2o1 [Compound 570] | < 5.00 |  |  |  |  |  | pIC50 ([5]; Table 4): > 7.00; pIC50 ([2]; read-out: PI3K α IC50, Table 4): > 7.00; pIC50 ([3]; Table 4): < 5.00; pIC50 ([4]; Table 4): < 5.00
C[C@H]1CN(C2CN(c3cnc4ccc(-c5ccc6oc(N)nc6c5)nc4c3)C2)CCN1C [Compound 606] |  |  |  |  |  |  | pIC50 [1]: > 6.00; pIC50 [2]: > 7.00; pIC50 ([3]; Table 4): < 5.00
C[C@@H]1CN(C2CN(c3cnc4ccc(-c5ccc6oc(N)nc6c5)nc4c3)C2)CCN1C [Compound 608] |  |  |  |  |  |  | pIC50 ([5]; Table 4): > 5.00; pIC50 ([3]; Table 4): < 5.00; pIC50 ([4]; Table 4): > 5.00
